Measurements as given in patent US9854822B2, “Process for increasing the yield of Lactococcus lactis subsp, lactis and/or Lactococcus lactis subsp. cremoris bacteria cultures during aerobic fermentation” (CHR. HANSEN A/S, priority 2005, dated 2018).

Legend:
[1] = test system: R 604 culture (Lactococcus lactis); assay: Yield of Lactococcus lactis fermentation at standard anaerobic high-OD conditions; format: cell-based
Experimental: To illustrate the effect of adding extra purine containing compounds to an already enriched and optimized media two different types of industrial scale fermentation were compared, one with and one without 0.3% w/w inosine added.
The present experiment was performed using the commercially available R 604 culture, which is available from Chr. Hansen A/S, Hoersholm, Denmark (catalogue no. 200113).
The cultures were cultured in a medium having the following composition: Casein hydrolysate (Oxoid, Basingstoke, UK, Product Code L41), 30 g/l; Primatone RL (Quest, Naarden, The Netherlands, Product Code 5X59051), 30 g/l; soya peptone (Oxoid, Basingstoke, UK, Product Code L44), 30 g/l; yeast extract (Oxoid, Basingstoke, UK, Product Code L21), 15 g/l; MgSO4, 1.5 g/l; Na-ascorbate, 3 g/l; and lactose 50 g/l.
The medium was sterilized by UHT-treatment (143° C. for 8 sec.).
The fermentation was performed in a 550 L industrial fermentation tank without aeration at 30° C. using 1% (w/w) of the culture mentioned above as inoculum. At high OD conditions the fermentation is essentially anaerobic. The cultures were allowed to acidify to pH 6.0. The pH was subsequently maintained at 6.0 by controlled addition of 13.4 N NH4OH.
When no further base consumption was detected, the respective culture was cooled down to about 10° C.
Following cooling, the bacteria in culture media were concentrated 6-18 times by centrifugation and subsequently frozen as pellets in liquid nitrogen at one atmosphere of pressure to produce a so-called frozen Direct Vat Set culture (F-DVS). The F-DVS pellets were stored at −50° C. until further analysis
The yields of the fermentations were specified in two different ways: • 1) by the obtained biomass measured as the Optical Density at 600 nm (OD600), or • 2) by kg of F-DVS culture pr. 100 L fermentation medium wherein the F-DVS culture have an “acidification activity” of 4.8-5.1 according to the Pearce test described in Example 2: Analytical Procedure QAm-043.

[2] = test system: Streptococcus thermophilus culture CHQ-18; assay: Yield of Streptococcus thermophilus fermentation at standard anaerobic high-OD conditions; format: cell-based; conditions: 0.2% w/w added, 3 L tank, 40° C., pH 6.0
Experimental: 0.2% w/w inosine is approximately 7 mM inosine.
This experiment was performed to investigate the effect of adding extra purine containing compounds to an already enriched and optimized media to be used for anaerobic fermentation at high OD-conditions.
The present experiment was performed using the commercially available Streptococcus thermophilus culture CHQ-18, which is available from Chr. Hansen A/S, Hoersholm, Denmark.
The cultures were cultured in a rich medium based on complex medium components, BioSpringer yeast extract 207, Arla skim milk powder (Milex 240), and lactose.
The fermentation was performed in a 3 L agitated fermentation tank at 40° C. using 0.1% (w/w) of the culture mentioned above as inoculum. The pH was maintained at 6.0 by addition of 13.4 N NH4OH. Anaerobic conditions were ensured by flushing with nitrogen in head space (1.5 l/min). Agitation was 300 rpm.
The yields of the fermentations were specified by the obtained biomass measured as the Optical Density at 600 nm (OD600) of unconcentrated samples sampled during the fermentation.

[3] = test system: L. lactis subsp. lactis CHCC2862; assay: Proteomics (2D protein gels) for detection of exogenous purines in the medium; format: cell-based, Lactococcus lactis subsp. lactis; conditions: 0.2% inosine, SA medium with 1% glucose
Experimental: To set up a specific method for detection of the presence/absence of exogenous purines in the medium we inoculated L. lactis subsp. lactis CHCC2862 into defined SA medium with 1% glucose. This medium is devoid of nucleo compounds (Jensen & Hammer 1993). Cultures were set up at 30° C. with and without 0.2% inosine and incubated overnight. Exponentially growing cells were then inoculated into fresh medium at an OD600 of around 0.1. At OD 0.8 (exponential growth) and in stationary phase cells were harvested and 2D protein gels were produced.
In general around 3-400 protein spots were detectable on the gels with the pH range 4-7. For OD 0.8 there were less than 10 spots that were present from the culture without inosine, but absent (or very weak) from the culture with inosine. […] Four of the strongest spots present only on the gel produced from the culture without purines were subjected to in-gel digestion and mass spectrometry identification. The proteins were identified as: purH (bifunctional purine biosynthesis protein), purM (phosphoribosylaminoimidazole synthase), yphF (phosphoribosylformylglycinamidine synthase PurS), and fhs (formyltetrahydrofolate synthetase). […]
Identification of proteins. The identity of proteins in chosen spots was determined by in-gel digestion and analysis of peptide profile and amino acid content using mass spectrometry. […]

[4] = 0.3% w/w inosine, 550 L tank without aeration, 30° C., pH 6.0

With `OC[C@H]1O[C@@H](n2cnc3c(O)ncnc32)[C@H](O)[C@@H]1O` [inosine] the “Effect of enhancing agent on yield” value ([1]; 0.3% w/w inosine added to the anaerobic culture medium before the start of the fermentation) was “did not result in increased yields”, the “Yield according to Pearce” value [1, 4] was 4.98 and the “Yield as OD600” value [1, 4] was 25.2. For the same compound, the “Effect of enhancing agent on yield (biomass as OD600, FIG. 1)” value [2] was “did not result in increased yields”, the “Protein spots present from the culture without inosine, but absent (or very weak) from the culture with inosine” value ([3]; 30° C., OD 0.8 (exponential growth), gels pH 4-7) was “less than 10 spots” and the “Absence/presence pattern of purine de novo synthesis protein spots” value ([3]; cells in stationary phase) was “a similar absence/presence pattern was obtained”.
